Measured values reported in US20240366756A1, “COMBINATIONS AND USES THEREOF” (Incyte Corporation, priority 2011, published 2024).

Tested on: MEC-1 cells
Assay: Cytotoxicity/ADCC cell killing of MEC-1 cells with PBMCs (FACS, propidium iodide)
Format: cell-based, human
Settings: for normalized specific killing: combination set to 1, Bendamustine 100 μg/ml, MOR00208 6.6 pM; for % dead cells: MOR00208 6.6 pm, BEN 100 μg/ml (48 h pre-incubation), E:T 30:1, 4 h, control RefMab33
Source text: MEC-1 cells: chronic B-cell leukemia cell line DSMZ #ACC497; Cell Medium: Iscove's Modified Dulbecco's Medium (IMDM) with GlutaMAX™, Invitrogen, Cat No.: 31980-048, 20% FCS; PBMCs: RPMI1640, with stabile Glutamine, PAN Biotech GmbH, Cat No.: P04-13500 supplemented with 10% FCS; Biocoll: Biochrome AG CAT No.: L6115 LOT No.: 1050T; Bendamustine: Mundipharma LOT No.: 88018; FCS: PAN CAT No.: 3302-P282403 LOT No.: P282403; and RefmAb33 (anti-RSV) with same Fc region as MOR00208.
The cytotoxicity of MOR00208 and bendamustine alone and in combination was tested in MEC-1 cells. BEN is an alkylating agent, therefore, functions via direct cytoxicity in MEC-1 cells. MOR00208 targets CD19 and additionally functions via ADCC in killing MEC-1 cells. For the following groups MEC-1 cell killing was measured: BEN at 100 μg/ml; MOR00208 at 6.6 pm and the combination of MOR00208 at 6.6 pm and BEN at 100 μg/ml. […] The following were used as controls: RefmAb33, or PBMCs alone. In both the BEN group and MOR00208+BEN combination group, MEC-1 cells were pre-incubated with BEN 48 hours prior to the ADCC assay measurements. The MEC-1 cells were stained using 1 mg/ml Calcein AM then counted and adjusted to 2×10^5/ml. The PBMCs were counted and adjusted to 6×10^6/ml. The cell killing assays were done as follows: using 96 well plates, a 100 μl cell suspension of MEC-1 cells was added per well, then 100 μl cell suspension of PBMCs was added to each well resulting in an E:T ratio of 30:1. The antibodies were diluted to 1 μg/ml in medium. Cells were centrifuged and re-suspended. To the target:effector cell-pellet, 100 μl antibody solution or according control solution was added. The mixture was incubated for 4 h in CO2-incubator at 37° C. The cell killing measurements were taken as follows: the incubated cell solution (˜100 μl) was transferred into FACS tubes and 200 μl FACS buffer (DPBS+3% FCS) and 0.5 μl PI stock solution was added to each tube. FACS-Calibur was used. Dead MEC-1 cells were stained with propidium iodide.
The values represent % dead cells. Each experiment represents PBMCs from different donors. The controls used for each experiment was RefMab33.
The values shown in Table 2 are calculated as follows: 1) from the raw data (% dead cells) shown in Table 1, the background (controls) were subtracted, resulting in the specific killing for each treatment group; then 2) the specific killing values were normalized by setting the combination of MOR00208+BEN to 1. The averages of Table 2 are depicted in FIG. 5.
[…] (CI) calculations were completed in order to determine synergy of the combination of the exemplified anti-CD19 antibody and bendamustine as compared to MOR00208 and BEN alone. Such calculations are described in Ting-Chao Chou, Theoretical Basis, Experimental Design, and Computerized Simulation of Synergism and Antagonism in Drug Combination Studies, Pharmacol Rev 58:621-681 (2006), which is incorporated by reference in its entirety and Chou T C, Talalay P, Quantitative analysis of dose-effect relationships: the combined effects of multiple drugs or enzyme inhibitors. Adv Enzyme Regul 22:27-55 (1984), which is incorporated by reference in its entirety. The methods of Chou-Talalay are carried out using the CI-isobol method.
The median-effect equation models of the effect of an inhibitor (such as a drug) as Fa/Fu=(D/D50)^m, where D is the dose, Fa and Fu is the fraction of the system affected and unaffected by the dose D (Fa+Fu=1); D50 is the dose producing the median effect (e.g. IC50, ED50, LD50). The constant m determines the shape of the dose-effect curve. We used Excel Fit software to carry out a linear regression calculation to estimate the parameters m and D50.
The effects of the combination on MEC-1 cells is measured % cell death as described above.

Row | Molecule | normalized specific killing (Average of experiments 1-3) | % dead cells (Experiment 1 (PBMC donor)) | normalized specific killing (Experiment 1, background subtracted) | % dead cells (Experiment 2 (PBMC donor)) | normalized specific killing (Experiment 2, background subtracted) | % dead cells (Experiment 3 (PBMC donor)) | normalized specific killing (Experiment 3, background subtracted) | EC50 (concentration chosen as near or at the EC50, read-out: EC50 (MEC-1 cell killing)) | Bonferroni's Multiple Comparison Test Mean Diff. (normalized specific killing, monotherapy vs. BEN + MOR00208 combination)
1 | MOR00208: anti-CD19 antibody; variable domains shown in FIG. 3, heavy and light chain Fc regions in FIG. 4 | 0.6 | 73.6% | 0.70 | 41.5% | 0.50 | 57.2% | 0.50 | ~6.6 pM | −0.4321
2 | RefmAb33: antibody specific for RSV, used as isotype control, shares the same Fc region as MOR00208 (SEQ ID NO: 8, 9) (antibody, Heavy chain RefMab33; Light chain RefMab33) heavy: QVTLRESGPALVKPTQTLTLTCTFSGFSLSTAGMSVGWIRQPPGKALEWLADIWWDDKKHYNPSLKDRLTISKDTSKNQVVLKVTNMDPADTATYYCARDMIFNFYFDVWGQGTTVTVSSASTKGPSVFPLAPSSKSTSGGTAALGCLVKDYFPEPVTVSWNSGALTSGVHTFPAVLQSSGLYSLSSVVTVPSSSLGTQTYICNVNHKPSNTKVDKKVEPKSCDKTHTCPPCPAPELLGGPDVFLFPPKPKDTLMISRTPEVTCVVVDVSHEDPEVQFNWYVDGVEVHNAKTKPREEQFNSTFRVVSVLTVVHQDWLNGKEYKCKVSNKALPAPEEKTISKTKGQPREPQVYTLPPSREEMTKNQVSLTCLVKGFYPSDIAVEWESNGQPENNYKTTPPMLDSDGSFFLYSKLTVDKSRWQQGNVFSCSVMHEALHNHYTQKSLSLSPGK light: DIQMTQSPSTLSASVGDRVTITCSASSRVGYMHWYQQKPGKAPKLLIYDTSKLASGVPSRFSGSGSGTEFTLTISSLQPDDFATYYCFQGSGYPFTFGGGTKVEIKRTVAAPSVFIFPPSDEQLKSGTASVVCLLNNFYPREAKVQWKVDNALQSGNSQESVTEQDSKDSTYSLSSTLTLSKADYEKHKVYACEVTHQGLSSPVTKSFNRGEC |  | 25.2% |  | 18% |  | 30.9% |  |  | 
